Reference: patent US7985424B2, “Dendritic polymers with enhanced amplification and interior functionality” (Dendritic Nanotechnologies Inc., priority 2004, dated 2011)

Assays:
[1] = Proton relaxivity analysis (variable field T1-T2 analyzer); assay type: physicochemical; conditions: Table IV; field strength varied from 1-64 MHz
Description: Relaxivity analysis was performed using a variable field T1-T2 analyzer. The field strength was varied from 1-64 MHz.
The Gd(III) content of the solutions was determined on a sequential, radially viewed Varian™ Liberty Series II ICPOES inductively coupled plasma optical emission spectrophotometer (Anderson Analytical, TX). Relaxivity analysis was performed using a variable field T1-T2 analyzer (University of Pittsburgh). The field strength was varied from 1-64 MHz. […] Relaxivity values for DTPA-Gd(III)-encapsulated dendrimers were similar to free DTPA-Gd(III).

HEK 293 cells = test: Membrane permeation of FITC-conjugated PEHAM dendrimer (fluorescence microscopy); assay type: cell-based, human; conditions: monitored at 2, 5 and 24 hours, FIG. 13
Description: Fluorescence microscopy and phase contrast microscopy studies were performed using a Nikon Diaphot™ TMD microscope equipped with Nikon™ TMD-EF for fluorescence, along with a Nikon™ CoolPix 990 digital camera to capture the results.
HEK 293 cells were plated at 40% confluency in a 96-well plate (Becton Dickinson) in MEM (Fisher), containing 10% FBS (ISC BioExpress). […] Control wells included G=1 PEHAM dendrimer and FITC dye alone, at equivalent concentrations. The cells were incubated with the conjugate for 24 hours, with monitoring via fluorescence microscopy at 2, 5, and 24 hours. Prior to examination under the microscope, the cells to be analyzed were rinsed 2 times with PBS.

Compound	Relaxivity (r1) [1] [mM⁻¹ s⁻¹]	membrane permeation / intracellular fluorescence (HEK 293 cells)
O=C([O-])CN(CCN(CC(=O)[O-])CC(=O)O)CCN(CC(=O)[O-])CC(=O)O.[Gd+3] [DTPA-Gd, diethylenetriaminepentaacetic acid, gadolinium(III)]	4.2	–
fluorescein isothiocyanate [FITC]	–	no intracellular fluorescence
